Assay: Mouse maximum tolerable dose experiment (acute toxicity)
Format: in vivo, Kunming mice
Settings: for abnormalities in the organs after killed (autopsy) / symptoms of toxic reactions: 5 g/kg intragastric; for abnormalities in the organs after killed (autopsy): after 7 days observation; for symptoms of toxic reactions: fasted for 16 hours; for symptoms of toxic reactions / Death rate: 7 days observation; for Death rate / Death number during observation: 5 g/kg/24 hr intragastric
Protocol: tested samples (YR-1, YR-2) are the same as above.
Strain: Kunming mice; source: Animal Facility of Shanghai Institute of Pharmaceutical Industry; certificate number: Hudonghezhengzi No. 107; animal numbers: 20; Sex: same number of male and female mice; Body weight: 18-21 g; fast time: 16 hours.
Preparation of samples: 5 g/kg (prepared with 5% carboxymethyl cellulose CMC); volume accepted: 0.6 ml/20 g body weight/each time; administration times: once; dosage: 5 g/kg/24 hr
Intragastric Administration
20 mice, 10 male and 10 female, were given YR-1 or YR-2 via intragastric administration, observed manifestation of mice toxic symptom immediately after administration, recorded mice death number.
Observed manifestation of mice toxic symptom immediately after administration, observed twice each day (morning and evening).
Toxic reaction: recorded behaviors of mice, skin, respiration, urination and defecation, appetite, checked if there are abnormal secretions appeared in the nose, eye and mouth.
Observation period: 7 days, killed all the surviving mice after observation period, and autopsied to see if there is any abnormality existed in the mice organs.

Molecule | abnormalities in the organs after killed (autopsy) (Kunming mice) | symptoms of toxic reactions (Kunming mice) | Death rate (female mice) [%] | Death number during observation (female mice, day 1) | Death number during observation (female mice, day 2) | Death number during observation (female mice, day 3) | Death number during observation (female mice, day 4) | Death number during observation (female mice, day 5) | Death number during observation (female mice, day 6) | Death number during observation (female mice, day 7) | Death rate (male mice) [%] | Death number during observation (male mice, day 1) | Death number during observation (male mice, day 2) | Death number during observation (male mice, day 3) | Death number during observation (male mice, day 4) | Death number during observation (male mice, day 5) | Death number during observation (male mice, day 6) | Death number during observation (male mice, day 7) | LD50 at 7 days (both sexes, mouse, in vivo, po, 5 g/kg, Kunming mice, intragastric administration, once) [mg/kg]
5-thia-1-aza-bicyclo [4,2,0] octane-2-ene-2-carboxylic acid, 7-[[(2-amino-4-thiazolyl) (methoxy imine) acetyl]amino]-3-methyl-8-oxo-, [[3,3-dimethyl-4,4-dioxy-7-oxo-4-thia-1-aza-bicyclo [3,2,0] heptane-2-group]carbonyloxy]oxy]methyl ester [YR-1] | no abnormalities were observed in the organs | no obvious abnormal symptoms of toxic reactions | 0 | 0 | 0 | 0 | 0 | 0 | 0 | 0 | 0 | 0 | 0 | 0 | 0 | 0 | 0 | 0 | –
CON=C(C(=O)NC1C(=O)N2C(C(=O)OCOC(=O)C3N4C(=O)CC4S(=O)(=O)C3(C)C)=C(COC(N)=O)CSC12)c1ccco1 (stereo not shown) [YR-2, 5-thia-1-aza-bicyclo [4,2,0] octane-2-ene-2-carboxylic acid, 7-[[(2-furane (methoxy imine)acetyl)amino]-3-[[(aminocarbonyloxy)oxy]methyl]-8-oxo-, [[3,3-dimethyl-4,4-dioxy-7-oxo-4-thia-1-aza-bicyclo[3,2,0]heptane-2-group]carbonyloxy]oxy]methyl ester] | no abnormalities were observed in the organs | no obvious abnormal symptoms of toxic reactions | 0 | 0 | 0 | 0 | 0 | 0 | 0 | 0 | 0 | 0 | 0 | 0 | 0 | 0 | 0 | 0 | > 5000
